According to ChEMBL document CHEMBL4052588, “Design of a Biased Potent Small Molecule Inhibitor of the Bromodomain and PHD Finger-Containing (BRPF) Proteins Suitable for Cellular and in Vivo Studies” (J Med Chem, 2017):

What was measured:
[1] = biological target: Bromodomain-containing protein 4 (Homo sapiens, UniProt O60885); assay: Inhibition of human BRD4-BD1 expressed in Escherichia coli BL21 after 1 hr by BROMOscan assay
[2] = biological target: T1, Bromodomain and PHD finger-containing protein 3 (Homo sapiens, UniProt Q9ULD4); assay: Inhibition of human BRPF3 expressed in Escherichia coli BL21 after 1 hr by BROMOscan assay
T1 sequence (Q9ULD4 whole entry): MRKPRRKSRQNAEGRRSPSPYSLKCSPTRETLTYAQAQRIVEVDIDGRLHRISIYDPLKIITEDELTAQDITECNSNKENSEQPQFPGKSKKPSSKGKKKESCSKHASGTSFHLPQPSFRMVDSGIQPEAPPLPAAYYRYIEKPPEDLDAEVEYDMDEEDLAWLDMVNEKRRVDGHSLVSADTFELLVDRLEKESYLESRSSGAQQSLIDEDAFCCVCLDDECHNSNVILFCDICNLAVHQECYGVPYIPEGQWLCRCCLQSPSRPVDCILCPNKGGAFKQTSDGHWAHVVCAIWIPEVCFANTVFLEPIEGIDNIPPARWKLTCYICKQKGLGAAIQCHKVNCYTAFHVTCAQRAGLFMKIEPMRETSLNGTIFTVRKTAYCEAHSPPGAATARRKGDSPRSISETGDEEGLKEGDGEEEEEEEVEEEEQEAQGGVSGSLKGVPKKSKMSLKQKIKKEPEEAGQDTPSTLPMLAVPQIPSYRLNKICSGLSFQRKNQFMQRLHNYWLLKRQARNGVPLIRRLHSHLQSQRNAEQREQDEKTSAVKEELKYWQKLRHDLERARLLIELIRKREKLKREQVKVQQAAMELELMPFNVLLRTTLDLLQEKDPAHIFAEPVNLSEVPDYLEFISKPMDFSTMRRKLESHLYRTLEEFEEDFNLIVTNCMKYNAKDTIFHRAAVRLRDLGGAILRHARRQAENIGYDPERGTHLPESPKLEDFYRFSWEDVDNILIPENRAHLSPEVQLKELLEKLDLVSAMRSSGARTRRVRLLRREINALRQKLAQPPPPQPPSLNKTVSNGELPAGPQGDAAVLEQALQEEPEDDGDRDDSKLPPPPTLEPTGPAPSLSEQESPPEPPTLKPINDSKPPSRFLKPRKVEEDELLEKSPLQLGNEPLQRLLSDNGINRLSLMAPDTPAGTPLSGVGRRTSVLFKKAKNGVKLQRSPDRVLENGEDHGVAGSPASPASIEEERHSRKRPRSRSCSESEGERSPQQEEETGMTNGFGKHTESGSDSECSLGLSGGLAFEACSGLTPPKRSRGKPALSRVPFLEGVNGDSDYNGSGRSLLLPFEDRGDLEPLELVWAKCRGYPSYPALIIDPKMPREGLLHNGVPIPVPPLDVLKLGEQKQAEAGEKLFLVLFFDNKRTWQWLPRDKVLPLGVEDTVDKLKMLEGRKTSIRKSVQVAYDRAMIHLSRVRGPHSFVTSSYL

[3] = biological target: T2, Bromodomain-containing protein 1 (Homo sapiens, UniProt O95696); assay: Inhibition of human BRPF2-BRD1 expressed in Escherichia coli BL21 after 1 hr by BROMOscan assay
T2 sequence (O95696 whole entry): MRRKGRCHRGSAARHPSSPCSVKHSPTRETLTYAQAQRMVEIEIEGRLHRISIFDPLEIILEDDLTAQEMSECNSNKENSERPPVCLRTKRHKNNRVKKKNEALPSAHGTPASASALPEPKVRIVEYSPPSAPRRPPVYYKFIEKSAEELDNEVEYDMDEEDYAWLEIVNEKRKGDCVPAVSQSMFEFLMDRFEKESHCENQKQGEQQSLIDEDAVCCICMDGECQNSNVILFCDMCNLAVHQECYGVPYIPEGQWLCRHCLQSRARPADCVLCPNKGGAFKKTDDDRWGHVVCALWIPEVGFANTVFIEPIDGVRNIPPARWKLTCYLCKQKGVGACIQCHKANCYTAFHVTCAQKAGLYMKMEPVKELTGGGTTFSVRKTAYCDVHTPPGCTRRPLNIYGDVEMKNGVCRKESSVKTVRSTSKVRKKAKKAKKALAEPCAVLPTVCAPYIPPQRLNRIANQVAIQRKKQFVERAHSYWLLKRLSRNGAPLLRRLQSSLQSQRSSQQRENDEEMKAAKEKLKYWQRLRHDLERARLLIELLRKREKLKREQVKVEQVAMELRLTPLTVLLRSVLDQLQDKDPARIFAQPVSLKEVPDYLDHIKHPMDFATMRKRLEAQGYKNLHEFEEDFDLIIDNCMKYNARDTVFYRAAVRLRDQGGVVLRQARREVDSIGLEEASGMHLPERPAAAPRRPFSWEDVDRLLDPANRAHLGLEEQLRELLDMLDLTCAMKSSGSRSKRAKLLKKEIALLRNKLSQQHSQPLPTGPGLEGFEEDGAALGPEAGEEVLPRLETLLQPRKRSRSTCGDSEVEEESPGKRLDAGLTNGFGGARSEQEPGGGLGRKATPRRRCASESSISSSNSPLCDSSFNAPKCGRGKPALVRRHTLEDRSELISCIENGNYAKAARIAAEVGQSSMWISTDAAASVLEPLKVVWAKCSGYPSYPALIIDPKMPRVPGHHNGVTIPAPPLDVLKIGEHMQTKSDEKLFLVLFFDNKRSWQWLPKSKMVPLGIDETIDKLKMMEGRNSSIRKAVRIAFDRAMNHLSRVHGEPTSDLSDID

[4] = biological target: T3, Bromodomain-containing protein 9 (Homo sapiens, UniProt Q9H8M2); assay: Inhibition of human BRD9 expressed in Escherichia coli BL21 after 1 hr by BROMOscan assay
T3 sequence (Q9H8M2 whole entry): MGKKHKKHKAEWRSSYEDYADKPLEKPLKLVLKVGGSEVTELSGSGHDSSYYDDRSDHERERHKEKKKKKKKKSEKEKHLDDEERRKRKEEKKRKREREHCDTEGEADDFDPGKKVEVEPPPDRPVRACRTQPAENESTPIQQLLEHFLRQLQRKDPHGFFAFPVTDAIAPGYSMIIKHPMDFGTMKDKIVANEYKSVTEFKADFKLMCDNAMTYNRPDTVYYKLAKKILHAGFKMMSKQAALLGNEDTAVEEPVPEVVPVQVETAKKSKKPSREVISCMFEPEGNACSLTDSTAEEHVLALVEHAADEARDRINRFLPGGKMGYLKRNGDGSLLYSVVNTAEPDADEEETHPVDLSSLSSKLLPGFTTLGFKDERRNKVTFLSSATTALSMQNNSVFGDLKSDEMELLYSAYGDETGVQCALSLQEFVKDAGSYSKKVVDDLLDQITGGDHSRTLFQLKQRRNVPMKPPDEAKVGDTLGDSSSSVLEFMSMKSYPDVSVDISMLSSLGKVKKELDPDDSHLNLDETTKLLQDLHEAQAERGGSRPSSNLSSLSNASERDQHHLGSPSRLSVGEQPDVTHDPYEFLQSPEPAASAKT

| Compound | IC50 [1] [µM] | IC50 [2] [µM] | IC50 [3] [µM] | IC50 [4] [µM] |
| --- | --- | --- | --- | --- |
| Cn1c(=O)ccc2cc(NS(=O)(=O)c3ccc(C#N)c(Cl)c3)ccc21 | 7.2 | 2.3 | 0.45 | 2.5 |
| Cc1cc2cc(NS(=O)(=O)c3ccc(C#N)cc3)ccc2n(C)c1=O | 4.5 | 0.26 | 0.048 | 0.31 |
| CCc1cc2cc(NS(=O)(=O)c3ccc(C#N)cc3)ccc2n(CC)c1=O | > 100 | > 100 | > 100 | > 100 |
| COc1ccccc1C(=O)Nc1cc2cc(C)c(=O)n(C)c2cc1N1CCCC1 | 4.6 | 12 | 2.6 | 0.42 |
| COc1cc2c(cc1NS(=O)(=O)c1ccc(C#N)cc1)c(C)cc(=O)n2C | 17 | 9.3 | 1.8 | 0.89 |
